Experimental data published in patent publication US4746664A, “Substituted-3,4-dihydro-4-(2,4,6-trimethoxyphenylimino)-2(1H)-pyrimidone s useful as cardiotonic, antihypertensive, cerebrovascular vasodilator and anti-platelet agent” (Fujisawa Pharmaceutical Co., Ltd., priority 1983, dated 1988).
Counter-ions that a name gives are not always drawn.

Tests used:
[1] = system: Mongrel dogs (left ventricular pressure, dp/dt max); assay: Cardiotonic activity (dp/dt max change, anesthetized dogs, i.v.); format: in vivo; conditions: Canis lupus familiaris, intravenous, read-out: dp/dt M.C. (percentage of dp/dt max changes)
Protocol: Test Method A (Cardiotonic activity): Mongrel dogs of either sex were anesthetized with sodium pentobarbital, 35 mg/kg, i.p. The animals were allowed to breathe spontaneously. The left carotid artery was isolated and a catheter (USCI, #8F) filled with heparinized saline was inserted and advanced into the left ventricle. the catheter was connected to a pressure transducer (Nihonkohden, MPU-0.5A) to measure the left ventricular pressure, from which dp/dt max was derived by analog computing. To measure the systemic blood pressure the left femoral artery was cannulated. The blood pressure pulse was used to trigger a heart rate meter. Another catheter was positioned in the vena cave through right femoral vein for injection of drugs. Systemic blood pressure, left ventricular pressure, dp/dt max and heart rate were recorded simultaneously on a polygram (Nihonkohden, RJG-4008). Test compound was dissolved in distilled water (0.2 ml/kg) or dimethyl sulfoxide (0.04 ml/kg) and injected into the femoral veing. The parameters after dosing were compared with those during the predosing period. Test results were represented in terms of percentage of dp/dt max changes (dp/dt M.C) calculated by following formula, and are shown in table 1. [formula]

[2] = system: Mongrel dogs (cerebral blood flow); assay: Cerebrovascular vasodilative activity (cerebral blood flow, anesthetized dogs, i.v.); format: in vivo; conditions: intravenous
Protocol: Test Method C (Cerebrovescular vasodilative activity):
Mongrel dogs of either sex were anesthetized with sodium pentobarbital (35 mg/kg. i.p.). After the external carotid artery was ligated, a flowmeter probe was fitted to the common carotid artery. Polyethylene cannulas were inserted in the femoral artery for measurement of blood pressure and in the saphenous vein for injection of drug. Blood pressure was measured with a pressure transducer and the arterial pulse was also used to trigger a heart rate meter. Blood pressure, heart rate and cerebral blood flow (C.B.F.) were recorded on a polygraph.
Test compound was dissolved in an equimolar solution of hydrochloric acid and diluted with water (0.2 ml/kg), and injected intravenously. The prarmeters after dosing were compared with those during the predosing period.

[3] = system: platelet aggregation induced by adenosine diphosphate (ADP); assay: Anti-platelet activity: ADP-induced aggregation of rabbit platelet rich plasma; format: cell-based; conditions: Oryctolagus cuniculus, 2 min, rabbit PRP, ADP 2.5 μM, pH 7.4, 37° C., read-out: ID50 ADP
Protocol: (§1) Test Method B (Anti-platellet activity):
(§2) Platelet rich plasma (PRP) which contains 6.5-7.5×10^8 platelet/ml was prepared from rabbit blood. To the 200 μl of PRP, 5 μl of calcium chloride (1 mM) and 50 μl of pH 7.4 Tris-acetate solution (5 mM) containing 120 mM NaCl and test compound were added successively, and then stirred for 2 min. at 37° C. To the solution, 5 μl of adenosine diphosphate (ADP) (2.5 μM) or collagen (2.5 μg/ml) was added as an aggregation inducer. Aggregation was measured by using an aggregometer (NKK HEMA TRACER 1).

[4] = system: uninephrectomized DOCA/saline male Wistar rats (mean arterial pressure); assay: Antihypertensive activity (DOCA hypertensive rats, oral); format: in vivo; conditions: 1.0 mg/kg
Protocol: Test Method D (Antihypertensive activity):
Five-week old male Wistar rats were uninephrectomized under anesthesia. Deoxycorticosterone acetate (DOCA) (30 mg/kg), suspended in peanut oil, was injected subcutaneously twice a week and 1% saline was substituted for the drinking water. Animals with mean blood pressure 150-200 mmHg were used for experiment between 5 and 7 weeks after surgery.
The test compounds were administered orally. Blood pressure was measured at the femoral artery by means of a pressure transducer and recorded as electrically integrated values of mean arterial pressure.

[5] = system: platelet aggregation induced by collagen; assay: Anti-platelet activity: collagen-induced aggregation of rabbit platelet rich plasma; format: cell-based; conditions: Oryctolagus cuniculus, 2 min, rabbit PRP, collagen 2.5 μg/ml, pH 7.4, 37° C., read-out: ID50 Collagen
Protocol: as §1, §2

IC50 [3] | IC50 [5] | Structure (SMILES) | change in vivo at 1 mg/kg [1] | C.B.F. increase ([2]; 0.1 mg/kg) | change in vivo at 0.1 mg/kg [1] | also measured
– | – | COc1ccc(-c2cc(=Nc3c(C)cc(C)cc3C)n(C)c(=O)n2C)cc1 [Example 62, 3,4-Dihydro-1,3-dimethyl-6-(4-methoxyphenyl)-4-(2,4,6-trimethylphenylimino)-2(1H)-pyrimidinone] | 102% | – | – | –
300 nM | 420 nM | COc1cc(OC)c(N=c2cc(-c3ccc(OC)c(OC)c3)n(C)c(=O)n2C)c(OC)c1 [Example 57, 3,4-Dihydro-6-(3,4-dimethoxyphenyl)-1,3-dimethyl-4-(2,4,6-trimethoxyphenylimino)-2(1H)-pyrimidinone] | 126% | 57.0% | 60% | C.B.F. increase ([2]; 0.01 mg/kg): 59.0%; Effect Max (maximum decrease of blood pressure) [4]: 44.0%
3600 nM | 230 nM | COc1ccc(-c2cc(=Nc3ccc(O)cc3)n(C)c(=O)n2C)cc1OC [Example 59, 3,4-Dihydro-6-(3,4-dimethoxyphenyl)-1,3-dimethyl-4-(4-hydroxyphenylimino)-2(1H)-pyrimidinone] | 158% | – | 57% | –
– | – | COc1ccc(-c2cc(=Nc3c(C)cc(C)cc3C)n(C)c(=O)[nH]2)cc1OC [Example 64, 3,4-Dihydro-6-(3,4-dimethoxyphenyl)-3-methyl-4-(2,4,6-trimethylphenylimino)-2(1H)-pyrimidinone] | 93% | – | 98% | –
– | – | COc1ccc(-c2cc(=Nc3cc(OC)c(OC)c(OC)c3)n(C)c(=O)n2C)cc1OC [Example 56, 3,4-Dihydro-6-(3,4-dimethoxyphenyl)-1,3-dimethyl-4-(3,4,5-trimethoxyphenylimino)-2(1H)-pyrimidinone] | 88% | 50.0% | 44% | C.B.F. increase ([2]; 1.0 mg/kg): 52.0%
– | – | CCCn1c(-c2ccc(OC)c(OC)c2)cc(=Nc2c(C)cc(C)cc2C)n(C)c1=O [Example 65, 3,4-Dihydro-6-(3,4-dimethoxyphenyl)-3-methyl-1-n-propyl-4-(2,4,6-trimethylphenylimino)-2(1H)-pyrimidinone] | 206% | – | 50% | –
– | – | COc1ccc(-c2cc(=Nc3c(C)cc(C)cc3C)[nH]c(=O)n2C)cc1OC [Example 69, 3,4-Dihydro-6-(3,4-dimethoxyphenyl)-1-methyl-4-(2,4,6-trimethylphenylimino)-2(1H)-pyrimidinone] | – | – | 42% | change in vivo at 0.01 mg/kg [1]: 45%
340 nM | 190 nM | COc1ccc(-c2cc(=Nc3c(C)cccc3C)n(C)c(=O)n2C)cc1OC [Example 58, 3,4-Dihydro-6-(3,4-dimethoxyphenyl)-1,3-dimethyl-4-(2,6-dimethylphenylimino)-2(1H)-pyrimidinone] | 145% | – | 84% | –
– | – | COc1ccc(-c2cc(=Nc3ccccc3)n(C)c(=O)n2C)cc1OC [Example 55, 3,4-Dihydro-6-(3,4-dimethoxyphenyl)-1,3-dimethyl-4-phenylimino-2(1H)-pyrimidinone] | – | 38.0% | – | C.B.F. increase ([2]; 1.0 mg/kg): 77.0%
– | – | COc1ccc(-c2cc(=Nc3cccnc3)n(C)c(=O)n2C)cc1OC [Example 50, 3,4-dihydro-6-(3,4-dimethoxyphenyl)-1,3-dimethyl-4-(3-pyridylimino)-2(1H)-pyrimidinone dihydrochloride] | 98% | – | – | –
– | – | COc1ccc(-c2cc(=Nc3ccc(Cl)cc3C)n(C)c(=O)n2C)cc1OC [Example 49, 4-(4-Chloro-2-methylphenylimino)-3,4-dihydro-6-(3,4-dimethoxyphenyl)-1,3-dimethyl-2(1H)-pyrimidinone] | – | – | 68% | –
790 nM | 170 nM | CCn1c(-c2ccc(OC)c(OC)c2)cc(=Nc2c(C)cc(C)cc2C)n(C)c1=O [Example 72, 3,4-dihydro-6-(3,4-dimethoxyphenyl)-1-ethyl-3-methyl-4-(2,4,6-trimethylphenylimino)-2(1H)-pyrimidinone] | – | 35.0% | 95% | C.B.F. increase ([2]; 1.0 mg/kg): 59.0%; change in vivo at 0.01 mg/kg [1]: 12%; Effect Max (maximum decrease of blood pressure) [4]: 38.0%
240 nM | 150 nM | COc1ccc(-c2cc(=Nc3c(C)cc(C)cc3C)n(C)c(=O)n2C)cc1OC [Example 48, 3,4-dihydro-6-(3,4-dimethoxyphenyl)-1,3-dimethyl-4-(2,4,6-trimethylphenylimino)-2(1H)-pyrimidinone] | – | 57.0% | – | C.B.F. increase ([2]; 0.01 mg/kg): 40.0%; change in vivo at 0.01 mg/kg [1]: 43%
– | – | Nc1cc(-c2ccncc2)c[nH]c1=O [Amrinone, 3-Amino-5-(4-pyridyl)-2(1H)-pyridinone, reference compound] | 80% | – | 9% | –
